Measured values: patent US5096898A, “Bile acid unsaturated derivatives and pharmaceutical compositions containing them” (Giuliani S.p.A., priority 1990, dated 1992)
Values after ≈ are worked out from the molar mass of the structure shown. “Also recorded” adds a separate entry of the source. Like-named read-outs stand apart in the source and are kept apart here.

Assays:
[1] = Physico-chemical characteristics (Table 1); format: physicochemical; design: Critical micellar concentration (CMC): unit not given here; settings: for chromatographic logP: c18 hplc
[2] = Effect on bile flow and bile lipid secretion; format: in vivo, rat; settings: for SMAB (maximum secretion) / SMPL (maximum bile lipid secretion) / SMVo = maximum bile flow / SMXOL (maximum bile lipid secretion): intravenous, 6 μmoles/min/kg during 1 hour (stated for TOL-UDCA)
Protocol: (§1) Trans 3α,7β-dihydroxy-5β-24-cholen-27-oic acid (TOL-UDCA) was studied compared with ursodeoxycholic acid and the glycine and taurine conjugated thereof also in the following pharmacological tests:
effects on the secretion of bile, bile acids, cholesterol and phospholipids.
(§2) TOL-UDCA was administered to rat by intravenous and intraduodenal routes at a dose of 6 μmoles/min/kg during 1 hour.
SMVo = maximum bile flow
SM = maximum bile lipid secretion

[3] = Hepatic absorption, metabolism and biliary secretion, intravenous; format: in vivo; settings: rat
Protocol: as §1
hepatic and intestinal metabolism (in vivo and in vitro)
hepatic and intestinal absorption
as §2

[4] = read-out: Retention times with C18-HPLC (K') (converted)

| Compound | Critical micellar concentration (CMC) [1] | pKa [1] | solubility [1] [µM] | chromatographic logP [1, 4] | SMAB (maximum secretion) [2] | SMPL (maximum bile lipid secretion) [2] | SMVo = maximum bile flow [2] [µL/min/kg] | SMXOL (maximum bile lipid secretion) [2] | pKa ([1]; read-out: pKa) | chromatographic logP [1] | bile flow / choleretic effect (in words) ([2]; compared with UDCA natural analogs and conjugated forms) | kinetic of recovery in the bile ([3]; intravenous, 6 μmoles/min/kg during 1 hour) | accumulation in the hepatic cells ([3]; in vivo) | disappearance from the bile ([3]; in vivo) | presence in bile 2 hours after end of infusion ([3]; in vivo) | solubility ([1]; read-out: Solubility) [µM] |
| --- | --- | --- | --- | --- | --- | --- | --- | --- | --- | --- | --- | --- | --- | --- | --- | --- |
| C[C@H](CCC(=O)NCC(=O)O)[C@H]1CC[C@H]2[C@@H]3[C@@H](O)C[C@@H]4C[C@H](O)CC[C@]4(C)[C@H]3CC[C@]12C [G-UDCA] | 12 | 3.9 | 3 (≈ 1.35 µg/mL) | 0.0253 | 2,10 μmol/min/kg | 0,39 μmol/min/kg | 40 | 0,028 μmol/min/kg | – | – | – | – | – | – | – | – |
| C[C@H](CCC(=O)NCCS(=O)(=O)O)[C@H]1CC[C@H]2[C@@H]3[C@@H](O)C[C@@H]4C[C@H](O)CC[C@]4(C)[C@H]3CC[C@]12C [T-UDCA] | 8 | – | – | -0.00877 | 2,40 μmol/min/kg | 0,18 μmol/min/kg | 35 | 0,014 μmol/min/kg | 2 | – | – | – | – | – | – | – |
| C[C@H](CC/C=C/CC(=O)O)[C@H]1CC[C@H]2[C@@H]3[C@@H](O)C[C@@H]4C[C@H](O)CC[C@]4(C)[C@H]3CC[C@]12C [TOL-UDCA, Trans-3α,7β-dihydroxy-5β-24-cholen-27-oic acid] | 5 | 5.02 | 10 (≈ 4.33 µg/mL) | – | 1,02 μmol/min/kg | 0,12 μmol/min/kg | 90 | 0,020 μmol/min/kg | – | 0.96 | increases bile flow and this effect is stronger than the one of UDCA natural analogs and of the conjugated forms thereof; also recorded: strong choleretic effect after intravenous or intraduodenal administrations, which effect is higher than that of UDCA | recovered in the bile with a slow kinetic | accumulates in the hepatic cells | disappears from the bile with a slow kinetic | a noticeable amount of this bile acid is still present 2 hours after | – |
| C[C@H](CCC(=O)O)[C@H]1CC[C@H]2[C@@H]3[C@@H](O)C[C@@H]4C[C@H](O)CC[C@]4(C)[C@H]3CC[C@]12C [UDCA, ursodeoxycholic acid] | 19 | – | – | 0.563 | 3,02 μmol/min/kg | 0,22 μmol/min/kg | 60 | 0,022 μmol/min/kg | 5.06 | – | – | – | – | – | – | 9 (≈ 3.53 µg/mL) |
